Where “and” joins values, the source holds several entries; their conditions need not be identical. Equal values may be shown once. Entries after “also recorded” stand apart in the source; their conditions may differ.
Key:
murine Tau = test: Tau ELISA of whole brain lysates from A53T mice; type: in vivo, mouse (A53T); conditions: 21 days, 12 month old A53T mice
[1] = test system: B35 rat neuroblastoma cells; test: MTT assay, cell viability; type: cell-based; conditions: 5 hours, concentration given in the value
Protocol: (§1) Rat neuroblastoma B35 cells were grown in Dulbecco's Modified Eagle's Medium (DMEM) with 10% Fetal Bovine Serum (FBS) and 1% penicillin/streptomycin and incubated at 37° C. with 5% CO2. For the experiments, cells were transferred to 12-well plates (Cat. #150628, ThermoFisher, Waltham, Mass.) and grown to at least 70% confluence. Transient transfection was performed with 3pg P301L tau (Cat. #30145, Addgene) cDNA or 3pg human a-synuclein cDNA using Fugene HD transfection reagent (Cat. #E2311, Promega, Madison Wis.) for 24 hours. Cells were treated with ImM, I00pM, 10pM, IpM, 0.lIM, 0.01pMl, and 0.001pM dissolved in DMSO or an equivalent SuL of DMSO for 5 hours. Cell culture media was collected and cells were harvested using sodium-tris, EDTA, NP-40 (STEN) buffer and centrifuged at 10,000×g for 20 minutes at 4′C and supernatant was collected. Cell viability was determined via lactate dehydrogenase assay (Cat. #88954, Thermofisher) and MTT assay (Cat. #V13154, Thennofisher). Protein was extracted by removing culture medium and adding 0.2 ml lx STEN buffer (50 mM Tris (pH 7.6), 150 mM NaCl, 2 mM EDTA, 0.2% NP-40, 0.2% BSA, 20 mM PMSF and protease cocktail inhibitor) to cell layer and incubated on ice for 10 minutes. The bottom of the well was scraped and allowed to incubate on ice for an additional 10 minutes. Cell lysates were collected, stored at -80° C., and used for additional analyses.
(§2) Compound 1 (BK5018), Compound 2 (BK5026), Compound 3 (BK5029), Compound 4 (BD5040), Compound 6 (CL2-296). Compound 7 (CL-2-287-1) and Compound 8 (CL-2-287-2) with molecular weights of 284, 339.265, 264, 339, 269 and 247 gimol, respectively, were diluted in Dimethyl Sulfoxide (DMSO) to final concentrations of 100 pM, 10 µM, 1 pM, 0.1 pM, 0.01 pM, and 0.001 pM. Drugs were stored at −80° C.
To measure cell viability, cells were incubated with 500 pL of Dulbecco's Modified Eagle's Medium (DMEf) containing 50 pL of (3-[4,5-dimethylthiazol-2-yl]-2,5-diphenyl-tetrazolium bromide (ivT)) for 5 hours at 37° C. and 5% CO2. The media was aspirated so that 125 uL of media remained. The formazan salts were dissolved in 250 uL of DMSO. Absorbance was read against a blank containing 125 uL of media and MTT, and 250 uL of DMSO at 570 mn.

[2] = test system: B35 rat neuroblastoma cells; test: Lactate dehydrogenase (LDH) assay, cell toxicity; type: cell-based; conditions: 5 hours, concentration given in the value
Protocol: as §1, §2
Cellular cytotoxicity was quantitatively measured by assessment of LDH, a cytosolic enzyme that is released from damaged cells into the cellular media, after exposure to the drug 5 hours after initial dosage. The cell culture media was collected, and an aliquot was coupled with a lactate and NAD+. LDH catalyzes the reaction that converts lactate into pyruvate to produce NADH. NADH, in turn, reduces a tetrazolium salt (NT) into a red fornazan product. The amount of LDH in the media is proportional to the amount of formazan which was measured at 490 nn. The absorbance at 680 nm, to measure the background signal from the instrument, was subtracted from the absorbance at 490 nm to calculate the LDH activity. CelfCulture

[3] = test system: alpha-synuclein in a-synuclein-transfected B35 rat neuroblastoma cells; test: Reduction of alpha-synuclein in a-synuclein-transfected B35 cells; type: cell-based, rat cells transfected with human a-synuclein cDNA; conditions: treatment for five hours with 100aM, lOuM and luM concentrations
Protocol: as §1
To perform transient transfection of a-synuclein into the rat neuroblastoma B35 cells FuGene@ HD Transfection Reagent (Promega Corporation, Madison, Wis.) was used. Cells were grown in 12-well dishes. A mixture containing 12 pg of cDNA, 540 pg of DMEM containing 2% FBS, and 60 pd of FuGene@ HD Transfection Reagent was incubated for 10 minutes. The cells were treated with 50 pl of the FuGeneC HD Transfection Reagent/DNA mixture for 24 hours. Cells were harvested after transfection, media was aspirated, the cells were treated with 200ul of Sodium Tris EDTA NP40 (STEN) lysis buffer then scraped off the plate and collected into a 1.5 ml centrifiuge tube.

[4] = test system: Tauopathy rTG4510 mice expressing human P301L tau; test: Overnight nest shredding (nesting) behavior; type: in vivo, mouse; conditions: 10 mg/kg, 3 weeks, vs DMSO (Kruskal-Wallis P=0.01), rTG4510 mice
Protocol: Tauopathy rTG4510 mice (i.e., a mouse model that clinically manifest a tauopathy), expressing human P301L tau driven by a CAMrII promoter, approximately 9-12 months old, were treated intraperitoneally (I.P.) for 21 consecutive days, […], or Dimethyl sulfoxide (DMSO) (n=7).
Then, blinded, independent observers reviewed images of the overnight shredding and the average quality scores were calculated.
For nest shredding, Mann-Whitney analysis was used within groups, between timepoints, and Kruskal-Wallis analysis was used between treatment groups. For open-field studies, : ordinary one-way ANOVA or Student's I test was used. […]
Blinded independent observers reviewed images of the overnight shredding and the average quality scores were calculated.

[5] = 2.5 mg/kg, 5 mg/kg and 10 mg/kg I.P.

## COc1cccc(Nc2ccnc3cc(Cl)ccc23)c1 [BK5018, 7-Chloro-N-(3-methoxyphenyl)quinoin-4-amine]
Murine Tau; 2.5 mg/kg and 10 mg/kg I.P.
  murine Tau in whole brain lysates: significant reduction
[1]
  cell toxicity, as measured by MTT assay: no concentration of BK5018 displayed increased toxicity
[2]
  cell toxicity, as measured by LDH assay: 100aM and luM of BK5018 displayed increased levels of LDH and 100 uM and luM of BK5018 displayed increased toxicity

## Cc1cccc(Nc2cc(Nc3cccc(C)c3)c3ccccc3n2)c1 [BK5026, N^2,N^4-Di-m-tolyquinoline-2,4-diamine]
[1]
  cell toxicity, as measured by MTT assay: OOuM concentrations ofBK5026 displayed increased levels of cell toxicity
[2]
  cell toxicity, as measured by LDH assay: lOOuM and 1OuM concentrations of BK5026 displayed increased levels of cell toxicity and 100 uM

## COc1ccc2nccc(Oc3ccc(C)cc3)c2c1 [BK5029, 6-Methoxy-4-(p-tolyloxy)quinoUne]
Murine Tau; [5]
  murine Tau in whole brain lysates: significant reduction
[1]
  cell toxicity, as measured by MTT assay: low doses of BK5029 displayed increased toxicity
[2]
  cell toxicity, as measured by LDH assay: low doses of BK5029 displayed increased toxicity
[3]
  level of alpha-synuclein: none of the compounds significantly reduced the level of alpha-synuclein; also recorded: do not significantly reduce

## COc1ccc2nccc(Nc3cccc(C)c3)c2c1 [BK5030, 6-Methoxy-N-(m-toIyl)quinolin-4-amine]
[1]
  cell toxicity, as measured by MTT assay: no concentration of BK5030 displayed increased toxicity
[2]
  cell toxicity, as measured by LDH assay: no concentration of BK5030 displayed increased toxicity
[3]
  level of alpha-synuclein: none of the compounds significantly reduced the level of alpha-synuclein; also recorded: do not significantly reduce

## Cc1cccc(Nc2ccc3c(Nc4cccc(C)c4)nccc3c2)c1 [CL2-296, N^4,N^6—Di-m-tolylisoquinoline-1,6-diamine]
Murine Tau; [5]
  murine Tau in whole brain lysates: significant reduction
[1]
  cell toxicity, as measured by MTT assay: no concentration of CL2-296 displayed increased cell toxicity
[2]
  cell toxicity, as measured by LDH assay: 100 uM and IOuM concentrations of CL2-296 displayed decreased levels of LDH and no other concentration of CL2-296 displayed increased cell toxicity and 100luM and 10 uM concentrations of CL2-296 displayed decreased levels of LDH
[3]
  level of alpha-synuclein: none of the compounds significantly reduced the level of alpha-synuclein; also recorded: do not significantly reduce

## CC(C)(C)c1ccccc1Nc1ccccc1C(=O)O [CL-2-287-1, 2-((2-(tert-Buty)phenyl)amino)benzoic adid]
[1]
  cell toxicity, as measured by MTT assay: at 100lM or less did not show increased cell toxicity
[2]
  cell toxicity, as measured by LDH assay: at 100 uM or less did not show increased cell toxicity
[4]; listed as CL287-1
  nesting mean difference scores: significantly different
[4]; listed as CL-287-1
  nesting mean difference scores: significantly improved nesting behavior

From patent US20230095341A1, “COMPOSITIONS AND METHODS FOR TREATING NEURODEGENERATIVE, MYODEGENERATIVE, AND LYSOSOMAL STORAGE DISORDERS” (GEORGETOWN UNIVERSITY, priority 2020, published 2023)
